Data reported in US12157730B2, “Heteroaryl derivative, method for producing same, and pharmaceutical composition comprising same as effective component” (VORONOI INC., priority 2019, dated 2024).

Target: T1, Ba/F3 cell EGFR Exon20 ins NPH (Homo sapiens, UniProt P00533, INS773NPH)
T1 construct: expressed in transfected cells; host or cells: Ba/F3
Assay: Ba/F3 cell proliferation suppression, EGFR Exon20 ins NPH
Assay type: cell-based
Settings: GI50 class; Ba/F3 cell line with NPH inserted at Exon20 of EGFR; 72 hours
Summary of the method: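 After 72 h compound exposure (twelve 3-fold steps, 0.3 nM–50 um final), live cells were measured by CellTiter-Glo luminescence and growth expressed as % of control to derive GI50. Cells were seeded at 3000–5000 per well a day earlier; Ba/F3 medium contained IL-3; three repeats.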

Structure (SMILES) | Ba/F3 (NPH) Activity
C=CC(=O)Nc1cc(Nc2cc(N3OCC[C@@H]3c3ccc(Cl)cc3)ncn2)c(OC)cc1N1CCC(N2CCN(C3CCC3)CC2)CC1 [Example 75, N-(5-((6-((R)-3-(4-chlorophenyl)isoxazolidine-2-yl)pyrimidine-4-yl)amino)-2-(4-(4-cyclobutylpiperazine-1-yl)piperidine-1-yl)-4-methoxyphenyl) acrylamide] | A (GI50 < 50 nM)
C=CC(=O)Nc1cc(Nc2cc(N3OCC[C@@H]3c3ccccc3)ncn2)c(OC)cc1N1CCC(N2CC[C@@H](N(C)C)C2)CC1 [compound 787, N-(2-(4-((R)-3-(dimethylamino)pyrolidine-1-yl)piperidine-1-yl)-4-methoxy-5-((6-((R)-3-phenylisoxazolidine-2-yl)pyrimidine-4-yl)amino)phenyl) acrylamide] | A (GI50 < 50 nM)
C=CC(=O)Nc1cc(Nc2cc(N3OCC[C@@H]3c3ccc(Cl)c(F)c3)ncn2)c(OC)cc1N1CCN(C(C)=O)CC1 [compound 363, N-(2-(4-acetylpiperazine-1-yl)-5-((6-((R)-3-(4-chloro-3-fluorophenyl)isoxazolidine-2-yl)pyrimidine-4-yl)amino)-4-methoxyphenyl) acrylamide] | A (GI50 < 50 nM)
C=CC(=O)Nc1cc(Nc2cc(N3OCC[C@@H]3c3ccc(Cl)cc3)ncn2)c(OC)cc1N1CCC(N2CCN(C)CC2)CC1 [compound 732, N-(5-((6-((R)-3-(4-chlorophenyl)isoxazolidine-2-yl)pyrimidine-4-yl)amino)-4-methoxy-2-(4-(4-methylpiperazine-1-yl)piperidine-1-yl)phenyl) acrylamide] | A (GI50 < 50 nM)
C=CC(=O)Nc1cc(Nc2cc(N3OCC[C@@H]3c3cccc4ccccc34)ncn2)c(OC)cc1N1CCC(N2CCN(CC)CC2)CC1 [compound 484, N-(2-(4-(4-ethylpiperazine-1-yl)piperidine-1-yl)-4-methoxy-5-((6-((R)-3-(naphthalene-1-yl)isoxazolidine-2-yl)pyrimidine-4-yl)amino)phenyl)acrylamide] | B (50 nM ≤ GI50 < 500 nM)
C=CC(=O)Nc1cc(Nc2cc(N3OCC[C@@H]3c3ccc(C)nc3)ncn2)c(OC)cc1N1CCC(N2CCOCC2)CC1 [Example 45, N-(4-methoxy-5-((6-((R)-3-(6-methylpyridine-3-yl)isoxazolidine-2-yl)pyrimidine-4-yl)amino)-2-(4-morpholinopiperidine-1-yl)phenyl) acrylamide] | B (50 nM ≤ GI50 < 500 nM)
C=CC(=O)Nc1cc(Nc2cc(N3OCC[C@@H]3Cc3ccccc3)ncn2)c(OC)cc1N1CCN(C2COC2)CC1 [compound 958, N-(5-((6-((S)-3-benzylisoxazolidine-2-yl)pyrimidine-4-yl)amino)-4-methoxy-2-(4-(oxetane-3-yl)piperazine-1-yl)phenyl)acrylamide] | A (GI50 < 50 nM)
C=CC(=O)Nc1cc(Nc2cc(N3OCC[C@@H]3c3cccc(F)c3F)ncn2)c(OC)cc1N1CCC(N2CCN(C3CC3)[C@@H](C)C2)CC1 [Example 175, N-(2-(4-((S)-4-cyclopropyl-3-methylpiperazine-1-yl)piperidine-1-yl)-5-((6-((R)-3-(2,3-difluorophenyl)isoxazolidine-2-yl)pyrimidine-4-yl)amino)-4-methoxyphenyl) acrylamide] | A (GI50 < 50 nM)
C=CC(=O)Nc1cc(Nc2cc(N3OCC[C@@H]3c3ccc(Cl)c(Cl)c3)ncn2)c(OC)cc1N1CCN(C(C)C)CC1 [compound 680, N-(5-((6-((R)-3-(3,4-dichlorophenyl)isoxazolidine-2-yl)pyrimidine-4-yl)amino)-2-(4-isopropylpiperazine-1-yl)-4-methoxyphenyl) acrylamide] | A (GI50 < 50 nM)
C=CC(=O)Nc1cc(Nc2cc(N3OCC[C@@H]3c3ccc(F)c(F)c3)ncn2)c(OC)cc1N(C)CCN(C)C [compound 457, N-(5-((6-((R)-3-(3,4-difluorophenyl)isoxazolidine-2-yl)pyrimidine-4-yl)amino)-2-((2-(dimethylamino)ethyl)(methyl)amino)-4-methoxyphenyl) acrylamide] | A (GI50 < 50 nM)
C=CC(=O)Nc1cc(Nc2cc(N3OCC[C@@H]3c3cc(F)ccc3F)ncn2)c(OC)cc1N1CCC(N2C[C@@H](C)N(C3CC3)C[C@@H]2C)CC1 [Example 174, N-(2-(4-((2S,5R)-4-cyclopropyl-2,5-dimethylpiperazine-1-yl)piperidine-1-yl)-5-((6-((R)-3-(2,5-difluorophenyl)isoxazolidine-2-yl)pyrimidine-4-yl)amino)-4-methoxyphenyl) acrylamide] | A (GI50 < 50 nM)
C=CC(=O)Nc1cc(Nc2cc(N3OCC[C@@H]3c3cccc(F)c3Cl)ncn2)c(OC)cc1N1CCC(N2CCN(C(C)C)CC2)CC1 [compound 661, N-(5-((6-((R)-3-(2-chloro-3-fluorophenyl)isoxazolidine-2-yl)pyrimidine-4-yl)amino)-2-(4-(4-isopropylpiperazine-1-yl)piperidine-1-yl)-4-methoxyphenyl) acrylamide] | A (GI50 < 50 nM)
C=CC(=O)Nc1cc(Nc2cc(N3OCC[C@@H]3c3cccc(Cl)c3Cl)ncn2)c(OC)cc1N1CCN(C(C)C)CC1 [compound 475, N-(5-((6-((R)-3-(2,3-dichlorophenyl)isoxazolidine-2-yl)pyrimidine-4-yl)amino)-2-(4-isopropylpiperazine-1-yl)-4-methoxyphenyl) acrylamide] | A (GI50 < 50 nM)
C=CC(=O)Nc1cc(Nc2cc(N3OCC[C@H]3c3c(F)cccc3F)ncn2)c(OC)cc1N1CCC(N2CCN(C)CC2)CC1 [compound 896, N-(5-((6-((S)-3-(2,6-difluorophenyl)isoxazolidine-2-yl)pyrimidine-4-yl)amino)-4-methoxy-2-(4-(4-methylpiperazine-1-yl)piperidine-1-yl)phenyl)acrylamide] | C (500 nM ≤ GI50 < 5000 nM)
C=CC(=O)Nc1cc(Nc2cc(N3OCC[C@@H]3c3ccc(Cl)c(Cl)c3)ncn2)c(OC)cc1N1C[C@@H]2C[C@H]1CN2C [compound 684, N-(5-((6-((R)-3-(3,4-dichlorophenyl)isoxazolidine-2-yl)pyrimidine-4-yl)amino)-4-methoxy-2-((1S,4S)-5-methyl-2,5-diazabicyclo[2.2.1]heptane-2-yl)phenyl) acrylamide] | A (GI50 < 50 nM)
C=CC(=O)Nc1cc(Nc2cc(N3OCC[C@@H]3c3cc(F)ccc3F)ncn2)c(OC)cc1N1CCC(N2CC[C@H](N(C)C)C2)CC1 [compound 816, N-(5-((6-((R)-3-(2,5-difluorophenyl)isoxazolidine-2-yl)pyrimidine-4-yl)amino)-2-(4-((S)-3-(dimethylamino)pyrolidine-1-yl)piperidine-1-yl)-4-methoxyphenyl) acrylamide] | A (GI50 < 50 nM)

More lines, now with the values ahead:

Ba/F3 (NPH) Activity | Structure (SMILES)
A (GI50 < 50 nM) | C=CC(=O)Nc1cc(Nc2cc(N3OCC[C@@H]3c3cc(F)ccc3F)ncn2)c(OC)cc1N1CCN(C)CC1 [compound 818, N-(5-((6-((R)-3-(2,5-difluorophenyl)isoxazolidine-2-yl)pyrimidine-4-yl)amino)-4-methoxy-2-(4-methylpiperazine-1-yl)phenyl)acrylamide]
A (GI50 < 50 nM) | C=CC(=O)Nc1cc(Nc2cc(N3OCC[C@@H]3c3cc(F)cc(F)c3)ncn2)c(OC)cc1N1CCN(C)C[C@H]1C [compound 918, N-(5-((6-((R)-3-(3,5-difluorophenyl)isoxazolidine-2-yl)pyrimidine-4-yl)amino)-2-((R)-2,4-dimethylpiperazine-1-yl)-4-methoxyphenyl) acrylamide]
A (GI50 < 50 nM) | C=CC(=O)Nc1cc(Nc2cc(N3OCC[C@@H]3c3cc(F)cc(F)c3)ncn2)c(OC)cc1N1CCN(C)[C@H](C)C1 [compound 917, N-(5-((6-((R)-3-(3,5-difluorophenyl)isoxazolidine-2-yl)pyrimidine-4-yl)amino)-2-((R)-3,4-dimethylpiperazine-1-yl)-4-methoxyphenyl) acrylamide]
A (GI50 < 50 nM) | C=CC(=O)Nc1cc(Nc2cc(N3OCC[C@@H]3c3cc(F)cc(F)c3)ncn2)c(OC)cc1N1CCC(N2CCOC[C@@H]2C)CC1 [compound 843, N-(5-((6-((R)-3-(3,5-difluorophenyl)isoxazolidine-2-yl)pyrimidine-4-yl)amino)-4-methoxy-2-(4-((S)-3-methylmorpholino)piperidine-1-yl)phenyl) acrylamide]
A (GI50 < 50 nM) | C=CC(=O)Nc1cc(Nc2cc(N3OCC[C@@H]3c3cc(F)ccc3F)ncn2)c(OC)cc1N1C[C@@H](C)N(CC)[C@@H](C)C1 [compound 878, N-(5-((6-((R)-3-(2,5-difluorophenyl)isoxazolidine-2-yl)pyrimidine-4-yl)amino)-2-((3S,5R)-4-ethyl-3,5-dimethylpiperazine-1-yl)-4-methoxyphenyl) acrylamide]
A (GI50 < 50 nM) | C=CC(=O)Nc1cc(Nc2cc(N3OCC[C@@H]3c3cccc(F)c3Cl)ncn2)c(OC)cc1N1CC[C@@H](N(C)C)C1 [compound 558, N-(5-((6-((R)-3-(2-chloro-3-fluorophenyl)isoxazolidine-2-yl)pyrimidine-4-yl)amino)-2-((R)-3-(dimethylamino)pyrolidine-1-yl)-4-methoxyphenyl) acrylamide]
A (GI50 < 50 nM) | C=CC(=O)Nc1cc(Nc2cc(N3OCC[C@@H]3c3cc(F)cc(F)c3)ncn2)c(OC)cc1N1CCC(N2C[C@H](C)N(C3CC3)C[C@@H]2C)CC1 [Example 113, N-(2-(4-((2S,5S)-4-cyclopropyl-2,5-dimethylpiperazine-1-yl)piperidine-1-yl)-5-((6-((R)-3-(3,5-difluorophenyl)isoxazolidine-2-yl)pyrimidine-4-yl)amino)-4-methoxyphenyl) acrylamide]
